Consider two molecules from paper PMC13168289, “Potent acridone antimalarial against all three life stages of Plasmodium” (Nature Communications, 2026).

The Cmax is the maximum level reached in the sampled fluid or tissue. Broadly, the Tmax is the time from dosing to the highest level. For orientation: IC50 means the midpoint of a concentration-inhibition curve.

On the set-up of data set [1]: method as in reviewer #3 remark. As to conditions: in humans; ref reviewer #3 remark; cited from earlier work.
Data set [2] can be described thus: in vivo pharmacokinetics, single oral dose. Further details: species or system ICR-CD1 mice. As to conditions: 40 mg/kg oral. The procedure:
PK studies were conducted using well-established methods[21],[31],[50]. Four to five weeks old male and female outbred ICR-CD1 mice (Charles River Laboratories. Inc. Raleigh, NC) weighing 23–35 g were used for PK studies. Animals were assigned unique study numbers via ear tags and cage cards and were randomly assigned to treatment or control groups (n = 3 per group) using a weigh-stratified randomization procedure. All animals were quarantined and acclimatized for 7 days prior to study initiation and were housed in a 12:12 light/dark cycle with food and water provided ad libitum. […] At each time point, a terminal whole blood sample was collected by cardiac puncture using heparinized syringes (Heparin, Hospira, Lake Forest, IL), while mice were under anesthesia in accordance with the approved IACUC protocol. Following the separation of appropriate aliquots, plasma was obtained from the whole blood via centrifugation at 16,200 rpm for 10 min at 4 °C. Mice were humanely euthanized as described in the protocol, after which the liver samples were also collected and weighed at each experimental time point. All tissue samples were immediately preserved on dry ice and later stored at −80 °C until analytical work was performed. Drug concentrations were determined for each sample taken from animals dosed with the test compound. PK parameters such as time to maximum plasma concentration (Tmax), maximum plasma concentration (Cmax), the apparent elimination half-life (t1/2), area under the curve (AUC), etc., were obtained using noncompartmental analysis via the Phoenix WinNonlin software package (version 6.4; Pharsight Corp., Mountain View, CA).

The nature of data set [3]: 7-day repeat dose toxicology study. It counts as in vivo, Sprague Dawley rats. As to conditions: 25, 100, 400 mg/kg daily oral for 7 days. The procedure: (§1) In vivo toxicology and TK studies in rats were performed at SRI International, using the well-established methods[83]–[85]. Rats were housed in microisolator cages with hardwood chip bedding (Sani-Chips; Envigo Teklad) and maintained on a 12 h light/dark cycle. Environmental conditions were controlled at 20–26 °C (68–79 °F) with 30–70% relative humidity. […] Male and female Sprague Dawley outbred rats were randomly assigned to treatment and control groups using a simple randomization procedure to ensure a balanced distribution of baseline weights across all cohorts. […] For TK studies, blood was collected from animals at 6 time points post dose on Day 1 (0.5, 1, 2, 4, 8, and 24 h) and on Day 7 (0.5, 2, 8, 24, 48, and 96 h). Drug levels were determined in collected plasma samples using bioanalytical method developed at SRI. The plasma drug level data were analyzed using Phoenix WinNonlin (version 8.3) software to perform noncompartmental data analysis.

A short description of data set [4]: maximum tolerated dose (MTD) study, single oral dose. It counts as in vivo, Sprague Dawley rats. As to conditions: oral gavage, male and female rats. As to the method: as §1
Data set [5] relates to Salmonella typhimurium TA98 and TA100. As to the kind of experiment: Ames assay. As to conditions: 10 µM; TA98 and TA100, with and without S9 activation. It counts as cell-based. As to the method:
Mutagenicity was assessed using the Ames assay[54] (EBPI, Ontario, Canada) against S. typhimurium TA100 and TA98, with and without S9 activation. The tester strain S. typhimurium (TA100 and TA98) cultures were inoculated from the lyophilized pellets and grown in nutrient broth provided by EBPI. Each inoculated vial (5 mL volume with antibiotics) was placed overnight in the incubator at 37 °C. The positive controls for the assay were 1.0 µg/µL 2-aminoanthracene (2-AA) for incubations with the S9 mix and 5 µg/mL sodium azide (NaN3, used for TA100) and 300 µg/mL 2-nitrofluorene (2NF, used for TA98) for incubations without the S9 mix. […] An aliquot (0.2 mL) of the mixture was then added to each well of a 96-well plate. The 96-well plates were covered, sealed in zip-lock bags, and incubated for 5 days at 37 °C. Plates were scored visually, and the positive wells against background mutations were statistically analyzed.
For orientation: In the Ames test, an excess of revertant colonies over the control signals mutagenicity.

The subject of data set [6] is fresh P. falciparum isolates. As to the kind of experiment: Ex vivo 72-h growth inhibition assay with SYBR Green detection. The format is cell-based, Plasmodium falciparum. The procedure:
Isolates were collected from patients with uncomplicated falciparum malaria in Bobo-Dioulasso, Burkina Faso and Tororo, Uganda. For parasite culture, parasitemia was identified with Giemsa-stained thin films using a light microscope. […] Isolates were stored at 4 °C and assayed within 24 h of collection. […] Study compounds were dissolved in DMSO as 10 mM stocks and stored at -20 °C. Drugs were serially diluted, including drug-free and parasite-free control wells, with concentrations optimized to capture full dose-response curves. Cultures were diluted with uninfected O^+ erythrocytes to achieve 0.2% parasitemia and 2% hematocrit. After 72 h, wells were resuspended, and culture from each well was transferred to 96-well plates containing SYBR Green lysis buffer and mixed. Plates were incubated for 1 h in the dark at room temperature, and fluorescence was measured with a plate reader (485 nm excitation and 530 nm emission).

The subject of data set [7] is P. falciparum Dd2, DR1 and DR4. As to the kind of experiment: SYBR Green 72 h drug susceptibility assay against ART-resistant clones. The format is cell-based, Plasmodium falciparum. The procedure:
Drug susceptibility assay against ART-resistant P. falciparum clones was performed using a SYBR Green-based assay[44],[74]. Synchronized ring stage parasites were cultured for 72 h in the presence of the test drug. The assay was performed in 96-well plates at 2% hematocrit and 0.5% starting parasitemia. Each experiment was conducted in triplicate and repeated with three biological replicates. Parasite growth at 72 h was quantified via SYBR Green I staining. The obtained counts were plotted against the logarithm of the compound concentration, and a curve was fitted with non-linear regression (sigmoidal dose-response/variable slope equation) to determine IC50 (half-maximal inhibitory concentration) values. The data was analyzed using GraphPad Prism software 8.0.

Molecules are shown by their SMILES. Like-named read-outs stand apart in the source and are kept apart here.

In the case of `O=C1C(O)=C([C@H]2CC[C@H](c3ccc(Cl)cc3)CC2)C(=O)c2ccccc21` [ATV, atovaquone], in data set [1], the T1/2 was 120 to 140 h.
Take `O=c1c2ccc(Oc3ccc(OC(F)(F)F)cc3)cc2[nH]c2cc(Cl)cc(F)c12` [T111]: the AUCinf in data set [2] (female, liver) is 23,495 ng.h/mL; in data set [2] (female, plasma), 185 ng·h/mL; in data set [2] (male, liver) it was 26,044 ng.h/mL; in data set [2] (male, plasma) it was 180 ng·h/mL. In addition, the AUClast in data set [2] (female, liver) was 23,384 ng.h/mL; in data set [2] (female, plasma), 169 ng·h/mL; in data set [2] (male, liver), 25,969 ng.h/mL; in data set [2] (male, plasma) it was 156 ng·h/mL. The Cmax is 1.503 µg/mL in data set [2] (female, liver); 0.0113 µg/mL in data set [2] (female, plasma); 1.704 µg/mL in data set [2] (male, liver); 0.0068 µg/mL in data set [2] (male, plasma). Further, the Tmax came to 8.0 h in data set [2] (female, liver); 4.0 h in data set [2] (female, plasma); 1.0 h in data set [2] (male, liver); 4.0 h in data set [2] (male, plasma). The tolerability entry in data set [3] was “well tolerated, albeit with minor clinical signs”. For the same molecule, in data set [4], the “single dose MTD” value is reported as “greater than 400 mg/kg”. Besides, the Ames test result in data set [5] is reported as “negative”. The IC50 in data set [6] (Burkina Faso isolates, n = 78, read-out: IC50 range) was 0.0013 to 0.49 nM; in data set [6] (Burkina Faso isolates, n = 78, read-out: median IC50), 0.062 nM; in data set [6] (Uganda isolates, n = 81, read-out: IC50 range) it was 0.0038 to 0.66 nM; in data set [6] (Uganda isolates, n = 81, read-out: median IC50), 0.049 nM; in data set [7] (DR1 (ART-R)) it was 0.11 nM; in data set [7] (Dd2), 0.028 nM.
